Assay: cn = amount concentration of the nth substance listed, in mol/dm3
Conditions: 101.3 kPa, Liquid; for viscosity: Falling or rolling sphere viscometry; for mass density: Vibrating tube method

NCCCC[C@H](N)C(=O)[O-].[K+] [potassium L-lysinate] + O
Conditions | mass density [kg/m3] | viscosity [mPa·s]
298.15 K, c1 = 0.2001 | 1010.5 | 1.003
298.15 K, c1 = 0.25 | 1017.5 | 1.008
298.15 K, c1 = 0.5 | 1028.2 | 1.29
298.15 K, c1 = 0.75 | 1043.2 | 1.348
298.15 K, c1 = 1.008 | 1056 | 1.575
298.15 K, c1 = 1.529 | 1084.8 | 2.286
298.15 K, c1 = 1.79 | 1111 | 3.236
298.15 K, c1 = 2 | 1121.6 | 3.564
298.15 K, c1 = 2.5 | 1141.9 | 5.406
298.15 K, c1 = 3 | 1151 | 8.407
303.15 K, c1 = 0.2001 | 1009 | 0.8978
303.15 K, c1 = 0.25 | 1016 | 0.9023
303.15 K, c1 = 0.5 | 1027.1 | 1.158
303.15 K, c1 = 0.75 | 1041.4 | 1.2
303.15 K, c1 = 1.008 | 1054.1 | 1.397
303.15 K, c1 = 1.529 | 1082.7 | 2.007
303.15 K, c1 = 1.79 | 1108.6 | 2.805
303.15 K, c1 = 2 | 1119.1 | 3.054
303.15 K, c1 = 2.5 | 1139.1 | 4.597
303.15 K, c1 = 3 | 1148.3 | 7.027
308.15 K, c1 = 0.2001 | 1007.3 | 0.8095
308.15 K, c1 = 0.25 | 1014.2 | 0.8125
308.15 K, c1 = 0.5 | 1025.2 | 1.045
308.15 K, c1 = 0.75 | 1039.5 | 1.075
308.15 K, c1 = 1.008 | 1052 | 1.247
308.15 K, c1 = 1.529 | 1080.4 | 1.774
308.15 K, c1 = 1.79 | 1106 | 2.454
308.15 K, c1 = 2 | 1116.5 | 2.676
308.15 K, c1 = 2.5 | 1136.4 | 3.95
308.15 K, c1 = 3 | 1145.5 | 5.946
313.15 K, c1 = 0.2001 | 1005.4 | 0.7344
313.15 K, c1 = 0.25 | 1012.3 | 0.7377
313.15 K, c1 = 0.5 | 1023.2 | 0.9512
313.15 K, c1 = 0.75 | 1037.3 | 0.9697
313.15 K, c1 = 1.008 | 1049.8 | 1.121
313.15 K, c1 = 1.529 | 1077.9 | 1.581
313.15 K, c1 = 1.79 | 1103.4 | 2.173
313.15 K, c1 = 2 | 1113.8 | 2.358
313.15 K, c1 = 2.5 | 1133.5 | 3.433
313.15 K, c1 = 3 | 1142.6 | 5.094
318.15 K, c1 = 0.2001 | 1003.3 | 0.6711
318.15 K, c1 = 0.25 | 1010.2 | 0.6737
318.15 K, c1 = 0.5 | 1021 | 0.866
318.15 K, c1 = 0.75 | 1035.1 | 0.8813
318.15 K, c1 = 1.008 | 1047.5 | 1.014
318.15 K, c1 = 1.529 | 1075.4 | 1.418
318.15 K, c1 = 1.79 | 1100.8 | 1.934
318.15 K, c1 = 2 | 1111 | 2.116
318.15 K, c1 = 2.5 | 1130.6 | 3.008
318.15 K, c1 = 3 | 1139.7 | 4.407
323.15 K, c1 = 0.2001 | 1001.1 | 0.6168
323.15 K, c1 = 0.25 | 1007.9 | 0.6185
323.15 K, c1 = 0.5 | 1018.6 | 0.796
323.15 K, c1 = 0.75 | 1032.7 | 0.804
323.15 K, c1 = 1.008 | 1045 | 0.9223
323.15 K, c1 = 1.529 | 1072.8 | 1.28
323.15 K, c1 = 1.79 | 1098.1 | 1.735
323.15 K, c1 = 2 | 1108.1 | 1.916
323.15 K, c1 = 2.5 | 1127.6 | 2.659
323.15 K, c1 = 3 | 1136.7 | 3.852
328.15 K, c1 = 0.2001 | 998.6 | 0.5697
328.15 K, c1 = 0.25 | 1005.4 | 0.5705
328.15 K, c1 = 0.5 | 1016.2 | 0.7351
328.15 K, c1 = 0.75 | 1030.1 | 0.7388
328.15 K, c1 = 1.008 | 1042.4 | 0.8431
328.15 K, c1 = 1.529 | 1070.1 | 1.162
328.15 K, c1 = 1.79 | 1095.2 | 1.566
328.15 K, c1 = 2 | 1105.2 | 1.757
328.15 K, c1 = 2.5 | 1124.6 | 2.368
328.15 K, c1 = 3 | 1133.7 | 3.394
333.15 K, c1 = 0.2001 | 995.6 | 0.5292
333.15 K, c1 = 0.25 | 1002.8 | 0.5294
333.15 K, c1 = 0.5 | 1013.7 | 0.6833
333.15 K, c1 = 0.75 | 1027.5 | 0.6798
333.15 K, c1 = 1.008 | 1039.7 | 0.7748
333.15 K, c1 = 1.529 | 1067.2 | 1.061
333.15 K, c1 = 1.79 | 1092.3 | 1.421
333.15 K, c1 = 2 | 1102.2 | 1.621
333.15 K, c1 = 2.5 | 1121.5 | 2.136
333.15 K, c1 = 3 | 1130.6 | 3.012
338.15 K, c1 = 0.2001 | 993.4 | 0.4937
338.15 K, c1 = 0.25 | 1002.8 | 0.4939
338.15 K, c1 = 0.5 | 1011 | 0.6409
338.15 K, c1 = 0.75 | 1024.7 | 0.629
338.15 K, c1 = 1.008 | 1036.9 | 0.7155
338.15 K, c1 = 1.529 | 1064.3 | 0.9729
338.15 K, c1 = 1.79 | 1089.3 | 1.296
338.15 K, c1 = 2 | 1099.1 | 1.501
338.15 K, c1 = 2.5 | 1118.3 | 1.927
338.15 K, c1 = 3 | 1127.5 | 2.693
343.15 K, c1 = 0.2001 | 990.6 | 0.4633
343.15 K, c1 = 0.25 | 997.3 | 0.463
343.15 K, c1 = 0.5 | 1008.1 | 0.6042
343.15 K, c1 = 0.75 | 1021.8 | 0.5855
343.15 K, c1 = 1.008 | 1033.9 | 0.6637
343.15 K, c1 = 1.529 | 1061.3 | 0.8961
343.15 K, c1 = 1.79 | 1086.3 | 1.188
343.15 K, c1 = 2 | 1096 | 1.435
343.15 K, c1 = 2.5 | 1115 | 1.748
343.15 K, c1 = 3 | 1124.3 | 2.423
348.15 K, c1 = 0.2001 | 987.7 | 0.4359
348.15 K, c1 = 0.25 | 994.3 | 0.4358
348.15 K, c1 = 0.5 | 1005.2 | 0.5715
348.15 K, c1 = 0.75 | 1018.7 | 0.5472
348.15 K, c1 = 1.008 | 1030.9 | 0.6181
348.15 K, c1 = 1.529 | 1058.2 | 0.8306
348.15 K, c1 = 1.79 | 1083.2 | 1.095
348.15 K, c1 = 2 | 1092.7 | 1.346
348.15 K, c1 = 2.5 | 1111.8 | 1.594
348.15 K, c1 = 3 | 1121.1 | 2.208

Source: the NIST ThermoML archive (doi:10.1016/j.fluid.2015.04.021)
